Patent US8841277B2, “Methods for treating non-small cell lung cancer using 5-azacytidine” (Celgene Corporation, priority 2009, dated 2014)
Entries after “also recorded” stand apart in the source; their conditions may differ.

Columns and labels:
[1] = test system: LINE-1 elements in A549 cells; assay: LINE-1 Methylation Assay, A549; type: cell-based; conditions: for DNA hypomethylation (LINE-1 methylation): 48 hours or 72 hours
Experimental: (§1) Genomic DNA was purified from cells using the DNeasy Blood and Tissue Kit (Qiagen; Valencia, Calif.), according to the manufacturer's instructions. DNA yield was quantitated with a NanoDrop 8000 spectrophotometer (Thermo Fisher Scientific, Inc.). DNAs (1 μg/sample) were submitted to EpigenDx (Worcester, Mass.) for bisulfate conversion and pyrosequencing of LINE-1 elements. Briefly, 1 μg of DNA was bisulfite-treated using the Zymo DNA Methylation Kit (Zymo Research; Orange, Calif.) and eluted in 10 μL volume. DNA eluate (1 μL) was used for PCR with biotinylated primers to the LINE-1 locus, converting the PCR product to single-stranded DNA templates. PCR products (each 10 μL) were sequenced by Pyrosequencing PSQ96 HS System (Biotage AB), following the manufacturer's instructions (Biotage; Kungsgatan, Sweden). The methylation status of each locus was analyzed individually as a T/C SNP using QCpG software (Biotage). Percent LINE-1 methylation represents the average percent methylation of four CpG sites in duplicate samples.
(§2) At the highest drug concentration tested (3 μM), LINE-1 methylation was less affected, possibly due to reduced drug incorporation as a result of inhibited cell proliferation.

[2] = test system: LINE-1 elements in H1299 cells; assay: LINE-1 Methylation Assay, H1299; type: cell-based; conditions: for DNA hypomethylation (LINE-1 methylation): 48 hours or 72 hours
Experimental: as §1, §2

H1299 cells [3] = assay: Western analysis of DNA damage and apoptosis markers, H1299; type: cell-based
Experimental: These studies also examined apoptosis using an assay for PARP cleavage. Cells studied included H460, A549, and H1299 cells.
(§3) For western analyses of protein levels, cells were washed with PBS and lysed with RIPA buffer (Cell Signaling Technology, Inc.; Danvers, Mass.) containing 350 mM NaCl and 0.1% SDS. Cell lysates were sonicated with two 5-second bursts under low amplitude (20%) using the Digital Sonic Dismembrator (Thermo Fisher Scientific, Inc.; Waltham, Mass.). Proteins were separated on 4-12% Bis-Tris NuPAGE gels (Life Technologies Corporation) and transferred to nitrocellulose membranes. DNMT1, phos-Histone-H2AX(Ser139), total Histone-H2AX, cleaved-PARP, p21, p53, and alpha-tubulin were detected using the Li-Cor Odyssey imaging system (Li-Cor Biotechnology; Lincoln, Nebr.), following incubation with the appropriate primary and secondary antibodies. The phos-Histone-H2AX(Ser139), cleaved-PARP, and p21 antibodies were from Cell Signaling Technology, Inc. The p53 and total Histone-H2AX (C-20) antibodies were from Santa Cruz Biotechnology, Inc. (Santa Cruz, Calif.). The alpha-tubulin and DNMT1 antibodies were purchased from EMD Chemicals, Inc. (Gibbstown, N.J.) and Abcam, Inc. (Cambridge, Mass.), respectively. The goat anti-Rabbit IRDye 680, goat anti-Mouse IRDye 800CW, and donkey anti-Goat IRDye 800CW secondary antibodies were from Li-Cor Biotechnology.

DNMT1 = DNMT1 protein depletion, A549; type: cell-based; conditions: for DNMT1 protein levels: dose range
Experimental: as §3
Reduced DNMT1 levels were detected in these cell lines as early as 4 hours after drug treatment (FIG. 17).

H1299 cells [4] = assay: Gene expression microarray analysis, H1299; type: cell-based, human; conditions: 48 hours; for Downregulated Genes: AZA-Specific / DAC-Specific Genes (number) / Upregulated Genes: AZA-Specific / DAC-Specific Genes (number) / Downregulated Genes: Genes in Common (number) / Upregulated Genes: Genes in Common (number): H1299; for Downregulated Genes: Genes in Common (number) / Upregulated Genes: Genes in Common (number): regulated by both AZA and DAC;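 as to Downregulated Genes: AZA-Specific / DAC-Specific Genes (number): drug dose range 0.3 to 3 µM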;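 as to Downregulated Genes: Genes in Common (number): drug dose range 0.3 to 3 µM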;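 as to Upregulated Genes: AZA-Specific / DAC-Specific Genes (number): drug dose range 0.3 to 3 µM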;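 as to Upregulated Genes: Genes in Common (number): drug dose range 0.3 to 3 µM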
Experimental: Cells were lysed using the TRIzol reagent (Life Technologies Corporation) and total RNA was isolated using miRNeasy (Qiagen). Double-stranded cDNA and biotin-labeled cRNA were synthesized using 100 ng of total RNA using Ambion's MessageAmp Premier RNA Amplification Kit (ABI; Foster City, Calif.). Biotin-labeled cRNA, at 10 μg, was fragmented and hybridized to each human U133A 2.0 genechip (Affymetrix; Santa Clara, Calif.). The GC-RMA algorithm was used for normalization and all analyses were done using GeneSpring 7.3 (Agilent; Santa Clara, Calif.). Averaged signals from biological duplicate samples were used to determine fold change (Treated vs. Untreated), with an absolute fold change of ≧1.7 defining regulated genes. NextBio was used to identify regulated Gene Ontology biogroups from lists of regulated genes. The top 15 biogroups are those with the lowest p-values calculated within NextBio.
The number of genes modulated in common between the two drugs was low.
Functional groupings of the modulated genes were determined using Gene Ontology classifications in Nextbio (http://www.nextbio.com/).

MDS, AML, CML, ALL, NHL = conditions: e.g. treatment of MDS, Aparicio et al. 2002; cited from earlier work
[5] = 0.3-10 μM, up to 3 days of treatment

| Structure (SMILES) | Concentration of peak hypomethylation (LINE-1) ([1]; 48 or 72 hours) | DNA hypomethylation (LINE-1 methylation) [1] | Concentration of peak hypomethylation (LINE-1) ([2]; 48 or 72 hours) | DNA hypomethylation (LINE-1 methylation) [2] | Induction of Histone H2AX phosphorylation (H1299 cells [3]; [5]) | Induction of PARP cleavage (H1299 cells [3]; [5]) | DNMT1 protein levels (DNMT1; 20 hours) | Downregulated Genes: AZA-Specific / DAC-Specific Genes (number) (H1299 cells [4]; 0.3 μM) | Upregulated Genes: AZA-Specific / DAC-Specific Genes (number) (H1299 cells [4]; 0.3 μM) | Downregulated Genes: Genes in Common (number) (H1299 cells [4]; 0.3 μM) | Upregulated Genes: Genes in Common (number) (H1299 cells [4]; 0.3 μM) | Downregulated Genes: AZA-Specific / DAC-Specific Genes (number) (H1299 cells [4]; 1.0 μM) | Upregulated Genes: AZA-Specific / DAC-Specific Genes (number) (H1299 cells [4]; 1.0 μM) | Downregulated Genes: Genes in Common (number) (H1299 cells [4]; 1.0 μM) | Upregulated Genes: Genes in Common (number) (H1299 cells [4]; 1.0 μM) | Downregulated Genes: AZA-Specific / DAC-Specific Genes (number) (H1299 cells [4]; 3.0 μM) | Upregulated Genes: AZA-Specific / DAC-Specific Genes (number) (H1299 cells [4]; 3.0 μM) | Downregulated Genes: Genes in Common (number) (H1299 cells [4]; 3.0 μM) | Upregulated Genes: Genes in Common (number) (H1299 cells [4]; 3.0 μM) | Anti-tumor activity in clinical trials (MDS, AML, CML, ALL, NHL) | also measured |
| --- | --- | --- | --- | --- | --- | --- | --- | --- | --- | --- | --- | --- | --- | --- | --- | --- | --- | --- | --- | --- | --- |
| Nc1ncn([C@@H]2O[C@H](CO)[C@@H](O)[C@H]2O)c(=O)n1 [AZA, 4-amino-1-β-D-ribofuranosyl-1,3,5-triazin-2(1H)-one] | 0.3-1 μM | induced DNA hypomethylation; also recorded: caused a decrease in LINE-1 methylation | 0.3-1 μM | induced DNA hypomethylation; also recorded: caused a decrease in LINE-1 methylation | induced | induced | significantly reduced | 33 | 10 | 45 | 55 | 393 | 435 | 107 | 135 | 991 | 1368 | 153 | 173 | significant anti-tumor activity | Concentrations affecting Histone H2AX phosphorylation and PARP cleavage (H1299 cells [3]): above 3 μM |
| Nc1ncn([C@H]2C[C@H](O)[C@@H](CO)O2)c(=O)n1 [DAC, 5-aza-2′-deoxycytidine] | 0.1 μM | induced DNA hypomethylation; also recorded: caused a decrease in LINE-1 methylation | 0.1 μM | induced DNA hypomethylation; also recorded: caused a decrease in LINE-1 methylation | did not have any effect | did not have any effect | significantly reduced | 121 | 214 | 45 | 55 | 170 | 238 | 107 | 135 | 257 | 303 | 153 | 173 | significant anti-tumor activity | Potency in decreasing LINE-1 methylation relative to AZA ([1]; 48 or 72 hours): 3- to 10 fold; Potency in decreasing LINE-1 methylation relative to AZA ([2]; 48 or 72 hours): 3- to 10 fold; Induction of Histone H2AX phosphorylation (H1299 cells [3]; 6 days of treatment): induced strong; Induction of PARP cleavage (H1299 cells [3]; 6 days of treatment): failed to induce significant; DNMT1 depletion (DNMT1; 0.3-10 μM, 24 h and 48 h (Example 5)): able to cause DNMT1 depletion; Relative potency in reducing DNMT1 levels (DNMT1; 20 hours): more potent than AZA; Concentration of maximal reduction of DNMT1 levels (DNMT1; 20 hours, lowest concentration tested): 0.05 µM; Fold more genes modulated than AZA (H1299 cells [4]; H1299 (stated for A549 and H1299 together), 0.3 μM): 4- to 20 fold |
